Test results as given in patent US12612410B2 (CHILDREN'S HOSPITAL MEDICAL CENTER, priority 2020, dated 2026).

Tests used:
IRAK1 = biological target: T1, IRAK1 (Homo sapiens, UniProt P51617); assay: RBC HotSpot Kinase Assay, IRAK1; type: biochemical; details: isolated kinase, 33P-ATP
T1 construct: purchased Reaction Biology (RBC), HotSpot kinase assay
In short: (§1)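 Steps: substrate in reaction buffer (20 mM Hepes pH 7.5, 10 mM MgCl2, 2 mM DTT, 1% DMSO); cofactors added; kinase added; compound dispensed acoustically, 20 min RT; 33P-ATP added; 2 h RT; P81 filter capture.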

MOLM14 D835Y cells = assay: MOLM14 D835Y cell viability assay (Cell Titer Glo); type: cell-based; details: Homo sapiens, MOLM-14, 48 h
In short: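 MOLM14 cells carrying FLT3 D835Y or F691L were seeded at 1000 cells/well in RPMI-1640 with 20% FBS and dosed at 22 concentrations, 1:2 dilutions from 10 μM. Viability after 48 h by Cell Titer Glo luminescence; 2.3 μM bortezomib as cytotoxic control.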

MOLM14 F691L cells = assay: MOLM14 F691L cell viability assay (Cell Titer Glo); type: cell-based; details: Homo sapiens, MOLM-14, 48 h
Description: Both cell lines have activated FLT3 receptors, each of which carry additional resistance mutations in the kinase domain (D835Y and F691L, respectively).
MOLM14 D835Y and MOLM14 F691L cells were grown in RPMI-1640 media supplemented with 20% fetal bovine serum (FBS). For viability/cytotoxicity assessments, cells were seeded into 1536-well white polystyrene tissue culture-treated Greiner plates using a Multidrop Combi dispenser (ThermoFisher), in final volume 5 μL of growth media per well, at a density of 1000 cells per well. After cell addition, 23 nL of test compound were transferred into individual wells (22 doses tested for each test compound, with a 1:2 dilution series starting at 10 μM) via a 1536 pin-tool. Bortezomib (final concentration 2.3 μM) was used as a positive control for cell cytotoxicity. Plates were incubated for 48 hours at standard incubator conditions covered by a stainless steel gasketed lid to prevent evaporation. 48 hours post compound addition, 3 μL of Cell Titer Glo (Promega) were added to each well and plates were incubated at room temperature for 15 minutes with the stainless-steel lid in place. Luminescence readings were taken using a Viewlux imager (PerkinElmer) with a 2 second exposure time per plate.

IRAK4 = biological target: T2, IRAK4 (Homo sapiens, UniProt Q9NWZ3); assay: RBC HotSpot Kinase Assay, IRAK4; type: biochemical; set-up: purchased Reaction Biology (RBC), HotSpot kinase assay; details: isolated kinase, 33P-ATP
T2 sequence (Q9NWZ3 1-460): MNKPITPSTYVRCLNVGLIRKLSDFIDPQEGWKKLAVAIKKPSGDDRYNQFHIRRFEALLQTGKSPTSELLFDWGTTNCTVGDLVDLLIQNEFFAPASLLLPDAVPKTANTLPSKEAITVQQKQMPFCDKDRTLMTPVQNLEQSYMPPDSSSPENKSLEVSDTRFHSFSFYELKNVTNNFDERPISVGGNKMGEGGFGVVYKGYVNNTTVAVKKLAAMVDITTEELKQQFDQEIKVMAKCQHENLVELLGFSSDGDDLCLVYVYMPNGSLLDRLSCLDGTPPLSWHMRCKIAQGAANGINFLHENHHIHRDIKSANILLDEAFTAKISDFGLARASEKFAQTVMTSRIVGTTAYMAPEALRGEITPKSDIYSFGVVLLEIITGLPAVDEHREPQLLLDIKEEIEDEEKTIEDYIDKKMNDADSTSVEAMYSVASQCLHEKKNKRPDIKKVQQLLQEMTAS
In short: as §1

FLT3 = biological target: T3, FLT3 (Homo sapiens, UniProt P36888); assay: RBC HotSpot Kinase Assay, FLT3; type: biochemical; set-up: purchased Reaction Biology (RBC), HotSpot kinase assay; details: isolated kinase, 33P-ATP
T3 sequence (P36888 27-993): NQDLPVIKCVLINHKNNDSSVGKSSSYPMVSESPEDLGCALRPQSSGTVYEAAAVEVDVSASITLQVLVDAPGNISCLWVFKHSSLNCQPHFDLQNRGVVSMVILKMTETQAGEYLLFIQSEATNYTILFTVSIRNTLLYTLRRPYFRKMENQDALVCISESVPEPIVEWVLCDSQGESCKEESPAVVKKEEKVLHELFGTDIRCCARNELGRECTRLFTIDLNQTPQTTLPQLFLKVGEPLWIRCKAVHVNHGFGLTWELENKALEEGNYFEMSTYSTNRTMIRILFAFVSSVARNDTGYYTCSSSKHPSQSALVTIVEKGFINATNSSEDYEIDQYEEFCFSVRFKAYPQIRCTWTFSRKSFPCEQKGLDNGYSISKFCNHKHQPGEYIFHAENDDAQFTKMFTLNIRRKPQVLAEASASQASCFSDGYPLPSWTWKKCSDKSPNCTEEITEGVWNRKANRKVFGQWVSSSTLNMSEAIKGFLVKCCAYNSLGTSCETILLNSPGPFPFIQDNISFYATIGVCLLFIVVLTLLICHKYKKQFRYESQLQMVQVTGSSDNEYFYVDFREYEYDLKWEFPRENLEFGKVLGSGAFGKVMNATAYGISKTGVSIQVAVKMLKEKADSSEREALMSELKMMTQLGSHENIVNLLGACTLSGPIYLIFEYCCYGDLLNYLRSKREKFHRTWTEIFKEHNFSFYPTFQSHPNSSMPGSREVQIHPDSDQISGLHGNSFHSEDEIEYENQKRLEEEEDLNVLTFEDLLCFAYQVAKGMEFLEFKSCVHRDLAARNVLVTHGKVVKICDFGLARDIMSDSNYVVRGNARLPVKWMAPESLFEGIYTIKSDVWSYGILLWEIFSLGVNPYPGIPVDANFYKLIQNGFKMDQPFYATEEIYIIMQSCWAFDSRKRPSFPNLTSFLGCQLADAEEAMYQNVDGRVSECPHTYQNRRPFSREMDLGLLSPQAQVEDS
In short: as §1

T1 sequence (P51617 whole entry): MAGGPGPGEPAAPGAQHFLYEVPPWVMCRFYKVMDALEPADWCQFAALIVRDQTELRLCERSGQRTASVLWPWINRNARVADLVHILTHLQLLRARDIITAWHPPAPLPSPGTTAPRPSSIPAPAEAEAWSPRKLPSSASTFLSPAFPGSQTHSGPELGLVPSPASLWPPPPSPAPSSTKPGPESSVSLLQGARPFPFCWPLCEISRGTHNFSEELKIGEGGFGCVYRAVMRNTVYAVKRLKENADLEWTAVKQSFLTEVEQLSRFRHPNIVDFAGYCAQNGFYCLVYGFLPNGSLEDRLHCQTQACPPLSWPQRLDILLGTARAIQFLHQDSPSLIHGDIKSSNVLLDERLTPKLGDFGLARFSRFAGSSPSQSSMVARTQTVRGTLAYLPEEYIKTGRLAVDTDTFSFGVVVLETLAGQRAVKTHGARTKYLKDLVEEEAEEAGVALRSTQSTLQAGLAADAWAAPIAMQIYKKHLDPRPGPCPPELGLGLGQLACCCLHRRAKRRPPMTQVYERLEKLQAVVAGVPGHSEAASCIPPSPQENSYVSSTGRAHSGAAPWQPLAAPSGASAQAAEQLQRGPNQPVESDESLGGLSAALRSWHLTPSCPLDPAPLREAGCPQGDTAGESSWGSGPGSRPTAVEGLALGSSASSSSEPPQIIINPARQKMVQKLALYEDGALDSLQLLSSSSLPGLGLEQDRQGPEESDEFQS

O=C1COCCN1c1cn2c(-c3cccc(N[C@@H]4CCCNC4)n3)cnc2cn1 [Compound 111, (R)-4-(3-(6-(piperidin-3-ylamino)pyridin-2-yl)imidazo[1,2-a]pyrazin-6-yl)morpholin-3-one]
IC50 (IRAK1): 2130 nM | IC50 (MOLM14 D835Y cells): 86 nM | IC50 (MOLM14 F691L cells): 344 nM | IC50 (IRAK4): 136 nM | IC50 (FLT3): 0.5 nM

O=C1COCCN1c1cn2c(-c3cccc(N[C@H]4CNCC[C@@H]4F)n3)cnc2cn1 [Compound 112, 4-(3-(6-(((3S,4S)-4-fluoropiperidin-3-yl)amino)pyridin-2-yl)imidazo[1,2-a]pyrazin-6-yl)morpholin-3-one]
IC50 (IRAK1): 1860 nM | IC50 (MOLM14 D835Y cells): 49 nM | IC50 (MOLM14 F691L cells): 183 nM | IC50 (IRAK4): 140 nM | IC50 (FLT3): < 0.5 nM

O=C1CCCCN1c1cn2c(-c3cccc(N[C@@H]4CCCNC4)n3)cnc2cn1 [Compound 113, (R)-1-(3-(6-(piperidin-3-ylamino)pyridin-2-yl)imidazo[1,2-a]pyrazin-6-yl)piperidin-2-one]
IC50 (IRAK1): 9940 nM | IC50 (MOLM14 D835Y cells): 172 nM | IC50 (MOLM14 F691L cells): 579 nM | IC50 (IRAK4): 1330 nM | IC50 (FLT3): 0.7 nM

O=C1CCCCN1c1cn2c(-c3cccc(N[C@H]4CNC[C@@H]4F)n3)cnc2cn1 [Compound 114, 1-(3-(6-(((3S,4S)-4-fluoropyrrolidin-3-yl)amino)pyridin-2-yl)imidazo[1,2-a]pyrazin-6-yl)piperidin-2-one]
IC50 (IRAK1): > 10000 nM | IC50 (MOLM14 D835Y cells): 460 nM | IC50 (MOLM14 F691L cells): 4860 nM | IC50 (IRAK4): 132 nM | IC50 (FLT3): 1 nM

O=C1CCCCN1c1cn2c(-c3cccc(N[C@H]4CNCC[C@@H]4F)n3)cnc2cn1 [Compound 115, 1-(3-(6-(((3S,4S)-4-fluoropiperidin-3-yl)amino)pyridin-2-yl)imidazo[1,2-a]pyrazin-6-yl)piperidin-2-one]
IC50 (IRAK1): 9400 nM | IC50 (MOLM14 D835Y cells): 92 nM | IC50 (MOLM14 F691L cells): 273 nM | IC50 (IRAK4): 150 nM | IC50 (FLT3): < 0.5 nM

O=C1NCCN1c1cn2c(-c3cccc(N[C@@H]4CCCNC4)n3)cnc2cn1 [Compound 116, (R)-1-(3-(6-(piperidin-3-ylamino)pyridin-2-yl)imidazo[1,2-a]pyrazin-6-yl)imidazolidin-2-one]
IC50 (IRAK1): 125 nM | IC50 (MOLM14 D835Y cells): 39 nM | IC50 (MOLM14 F691L cells): 193 nM | IC50 (IRAK4): 14 nM | IC50 (FLT3): 1 nM

O=C1NCCN1c1cn2c(-c3cccc(N[C@H]4CNC[C@@H]4F)n3)cnc2cn1 [Compound 117, 1-(3-(6-(((3S,4S)-4-fluoropyrrolidin-3-yl)amino)pyridin-2-yl)imidazo[1,2-a]pyrazin-6-yl)imidazolidin-2-one]
IC50 (IRAK1): 75 nM | IC50 (MOLM14 D835Y cells): 41 nM | IC50 (MOLM14 F691L cells): 273 nM | IC50 (IRAK4): 2 nM | IC50 (FLT3): 0.8 nM

O=C1CCCN1c1cn2c(-c3cccc(N[C@@H]4CCCNC4)n3)cnc2cn1 [Compound 120, 1-[3-[6-[[(3R)-3-piperidyl]amino]-2-pyridyl]imidazo[1,2-a]pyrazin-6-yl]pyrrolidin-2-one]
IC50 (IRAK1): 234 nM | IC50 (MOLM14 D835Y cells): 24 nM | IC50 (MOLM14 F691L cells): 86 nM | IC50 (IRAK4): 15 nM | IC50 (FLT3): < 0.5 nM

CC(C)(C)c1cn2c(-c3cc(F)cc(N[C@H]4CNC[C@@H]4F)n3)cnc2cn1 [Compound 122, 6-(6-(tert-butyl)imidazo[1,2-a]pyrazin-3-yl)-4-fluoro-N-((3S,4S)-4-fluoropyrrolidin-3-yl)pyridin-2-amine]
IC50 (IRAK1): 475 nM | IC50 (MOLM14 D835Y cells): 334 nM | IC50 (MOLM14 F691L cells): 770 nM | IC50 (IRAK4): 31 nM | IC50 (FLT3): < 0.5 nM

CC(C)(C)c1cn2c(-c3cc(F)cc(N[C@@H]4CCCNC4)n3)cnc2cn1 [Compound 123, (R)-6-(6-(tert-butyl)imidazo[1,2-a]pyrazin-3-yl)-4-fluoro-N-(piperidin-3-yl)pyridin-2-amine]
IC50 (IRAK1): 296 nM | IC50 (MOLM14 D835Y cells): 86 nM | IC50 (MOLM14 F691L cells): 244 nM | IC50 (IRAK4): 38 nM | IC50 (FLT3): 0.6 nM

CC(C)(C)c1cn2c(-c3cc(F)cc(N[C@H]4CNCC[C@@H]4F)n3)cnc2cn1 [Compound 124, 6-(6-(tert-butyl)imidazo[1,2-a]pyrazin-3-yl)-4-fluoro-N-((3S,4S)-4-fluoropiperidin-3-yl)pyridin-2-amine]
IC50 (IRAK1): 143 nM | IC50 (MOLM14 D835Y cells): 130 nM | IC50 (MOLM14 F691L cells): 290 nM | IC50 (IRAK4): 17 nM | IC50 (FLT3): < 0.5 nM

CC(C)(C)c1cn2c(-c3cccc(N[C@H]4CNC[C@@H]4F)n3)cnc2cn1 [Compound 128, 6-(6-(tert-butyl)imidazo[1,2-a]pyrazin-3-yl)-N-((3S,4S)-4-fluoropyrrolidin-3-yl)pyridin-2-amine]
IC50 (IRAK1): 108 nM | IC50 (MOLM14 D835Y cells): 58 nM | IC50 (MOLM14 F691L cells): 326 nM | IC50 (IRAK4): 0.6 nM | IC50 (FLT3): < 0.5 nM

CC(C)Oc1cn2c(-c3cccc(N[C@@H]4CCCNC4)n3)cnc2cn1 [Compound 131, (R)-6-(6-isopropoxyimidazo[1,2-a]pyrazin-3-yl)-N-(piperidin-3-yl)pyridin-2-amine]
IC50 (IRAK1): 438 nM | IC50 (MOLM14 D835Y cells): 27 nM | IC50 (MOLM14 F691L cells): 168 nM | IC50 (IRAK4): 10 nM | IC50 (FLT3): < 0.5 nM

FC(F)COc1cn2c(-c3cccc(N[C@H]4CNCC[C@@H]4F)n3)cnc2cn1 [compound 76, 6-(6-(2,2-difluoroethoxy)imidazo[1,2-a]pyrazin-3-yl)-N-((3S,4S)-4-fluoropiperidin-3-yl)pyridin-2-amine]
IC50 (IRAK1): 159 nM | IC50 (MOLM14 D835Y cells): 19 nM | IC50 (MOLM14 F691L cells): 199 nM | IC50 (IRAK4): 1 nM | IC50 (FLT3): < 0.5 nM

CC(C)Oc1cn2c(-c3cccc(N[C@H]4CNCC[C@@H]4F)n3)cnc2cn1 [compound 132, N-((3S,4S)-4-fluoropiperidin-3-yl)-6-(6-isopropoxyimidazo[1,2-a]pyrazin-3-yl)pyridin-2-amine]
IC50 (IRAK1): 144 nM | IC50 (MOLM14 D835Y cells): 19 nM | IC50 (MOLM14 F691L cells): 119 nM | IC50 (IRAK4): 2 nM | IC50 (FLT3): < 0.5 nM
